From US6268381A, “Taxane derivatives” (Kabushiki Kaisha Yakult Honsha, priority 1997, dated 2001)
≈ marks a conversion by molar mass, not a printed value.

Assays:
[1] = Solubility test of water-soluble taxane derivatives (Test 1, HPLC); type: physicochemical; conditions: purified water + 1.05 eq. 0.1N hydrochloric acid, shaken 2 hours at room temperature
Method: Solubilities of Novel Water-soluble Taxane Derivatives
I) Preparation of a calibration curve
Compound (1-4) was weighed in an amount of 2.3 mg, to which 2.3 mL of acetonitrile was added so that the compound was dissolved to provide a standard solution. Using a 10 μL portion of the standard solution, the test was conducted by HPLC (operation conditions 1). The peak area of Compound (1-4), which had been obtained from the chromatogram of the standard solution, was measured by automated integration. The peak area obtained as an average of three measurements was plotted against the amount (10 μg) of Compound (1-4) per 10 μL, whereby a calibration curve was prepared.
Calibration curve of Compound (1-4): Y =1.518 ×10^-5 X [X: peak area, Y: amount (μg) of Compound (1-4)] [HPLC operation conditions 1] Column: Inertsil ODS-2 (5-250), 40 deg. Mobile phase: 0.01M KH2 PO4 --CH3 CN (3:2). Flow rate: 1.0 mL/min. Detection: Ultraviolet absorption photometer (225 nm), 0.2 AUFS.
II) Solubility test of Compound (1-4):
Compound (1-4) was weighed in an amount of 3.7 mg and then suspended in 2.0 mL of purified water. To the resulting suspension, 41.3 μL (1.05 eq.) of 0.1N hydrochloric acid was added. […] From the area obtained as an average of three measurements, the solubility of the compound (1-4) was determined. […]

[2] = system: KB cells; test: Growth inhibitory activity against KB cells (Test 2, XTT assay); type: cell-based, human; conditions: for GI50: Homo sapiens, 72 h, 3 days culture; for Activity ratio: relative to Taxol (1.00)
Method: Growth Inhibitory Activity of Taxane Derivatives (1)
As KB cells derived from a human mouth cancer, those purchased from Dainippon Pharmaceutical Co., Ltd. and stored in a lyophilized from at the Research Institute of that company was used. In Dulbecco's modified Eargle's medium containing 10% fetal bovine serum (product of NISSUI PHARMACEUTICAL CO., LTD.), the KB cells were cultured and maintained under the conditions of 5%, CO2 -ari and 37° C.
Each compound was used by dissolving it in DMSO at a concentration of 10 mg/mL.
On Day-1, cells which were in a logarithmic growth phase were inoculated at 2,000 cells/100 μl/well on 96-well microtiter plates (Falcon #3072) by using a phenol-red-free culture medium with 10% fetal bovine serum contained therein (Dulbecco's modified Eargle's medium (Sigma)), and were cultured overnight. On Day 0, the compounds each of which had been diluted to 0.03 to 10,000 ng/mL with the same culture medium were added in 100 μl aliquots to the individual wells, and the cells were cultured for 3 days. Three wells were used per each drug concentration. Each plate was provided with three blank wells containing only the culture medium and also with eight wells as a drug-untreated control.
Upon use, XTT (Sigma) was dissolved at a concentration of 1 mg/mL in each culture medium which was free of serum. Phenodin methosulfate (Sigma) dissolved at a concentration of 5 mM in PBS was added to the resulting solution at a volume ratio of 1/200. To each well, the solution so prepared was added in an amount of 50 μl per well. Subsequent to culture for 4 hours, OD was measured at 450 nm by ELISA.
Calculation of 50% Growth Inhibitory Concentration (GI50)
GI50 was calculated by interpolation from a concentration-growth inhibition rate (GIR) curve. GIR was determined in accordance with the following formula: [formula]

[3] = system: ovarian cancer; conditions: Ann. int. Med. 111, 273, 1989; cited from earlier work
[4] = system: breast cancer; conditions: Ann. int. Med. 111, 273, 1989; cited from earlier work

## CCN1CCN(C(=O)O[C@H]2C(=O)[C@@]3(C)[C@H]([C@H](OC(=O)c4ccccc4)[C@]4(O)C[C@H](OC(=O)[C@H](O)[C@@H](NC(=O)OC(C)(C)C)c5ccco5)C(C)=C2C4(C)C)[C@]2(OC(C)=O)CO[C@@H]2C[C@@H]3O)CC1 [Compound 1-4, 13-0-[3-(tert-Butoxycarbonylamino)-3-(2-furyl)-2-hydroxypropionyl]-10-0-(4-ethylpipezinocarbonyl)-10-deacetylbaccatin III]
[1]; average of three measurements
  Amount dissolved: 7.87 μg/5 μL
[1]; water + 0.1n hcl
  solubility at 2 h: 1570 µg/mL
[2]
  GI50: 0.23 ng/mL (≈ 0.245 nM)
  Activity ratio: 5.65

## CC(=O)O[C@@]12CO[C@@H]1C[C@H](O)[C@@]1(C)C(=O)[C@H](OC(=O)N3CCN(C)CC3)C3=C(C)[C@@H](OC(=O)[C@H](O)[C@@H](NC(=O)OC(C)(C)C)c4ccoc4)C[C@@](O)([C@@H](OC(=O)c4ccccc4)[C@H]21)C3(C)C [Compound 1-2]
[2]
  GI50: 0.28 ng/mL (≈ 0.303 nM)
  Activity ratio: 4.64

## CCCN(CCC)C1CCN(C(=O)O[C@H]2C(=O)[C@@]3(C)[C@H]([C@H](OC(=O)c4ccccc4)[C@]4(O)C[C@H](OC(=O)[C@H](O)[C@@H](NC(=O)OC(C)(C)C)c5ccco5)C(C)=C2C4(C)C)[C@]2(OC(C)=O)CO[C@@H]2C[C@@H]3O)CC1 [Compound 1-3, 13-0-[3-(tert-Butoxycarbonylamino)-3-(2-furyl)-2-hydroxypropionyl]-10-0-(4-dipropylaminopiperidinocarbonyl)-10-deacetylbaccatin III]
[2]
  GI50: 0.43 ng/mL (≈ 0.427 nM)
  Activity ratio: 3.02

## CC(=O)O[C@@]12CO[C@@H]1C[C@H](O)[C@@]1(C)C(=O)[C@H](OC(=O)N3CCC(N4CCCCC4)CC3)C3=C(C)[C@@H](OC(=O)[C@H](O)[C@@H](NC(=O)OC(C)(C)C)c4ccoc4)C[C@@](O)([C@@H](OC(=O)c4ccccc4)[C@H]21)C3(C)C [Compound 1-1, 13-0-[3-(tert-Butoxycarbonylamino)-3-(3-furyl)-2-hydroxypropionyl]-10-0-(4-piperidinopiperidinocarbonyl)-10-deacetylbaccatin III]
[2]
  GI50: 0.48 ng/mL (≈ 0.484 nM)
  Activity ratio: 2.70

## CC(=O)O[C@H]1C(=O)[C@@]2(C)[C@H]([C@H](OC(=O)c3ccccc3)[C@]3(O)C[C@H](OC(=O)[C@H](O)[C@@H](NC(=O)c4ccccc4)c4ccccc4)C(C)=C1C3(C)C)[C@]1(OC(C)=O)CO[C@@H]1C[C@@H]2O [Taxol]
[2]
  GI50: 1.3 ng/mL (≈ 1.52 nM)
[3]
  Efficacy against ovarian cancer: high efficacy
[4]
  Efficacy against breast cancer: high efficacy
